Laboratory results published in patent US9540343B2 (Gilead Sciences, Inc., priority 2011, dated 2017).

What was measured:
HIV-IIIb = assay: Test A: Antiviral assay in MT4 cells; type: cell-based, HIV-1; settings: Human immunodeficiency virus 1, IIIB, MT4, 120 h, read-out: % inhibition at 2 μM, percent inhibition of virus-induced cell killing, from dose response curve at 2 uM drug; MT-4 cells infected with HIV-IIIb, 5 days, CellTiter-Glo
in vitro = settings: human, uninfected MT-4 cells, CC50 (nM), same protocol as Test A, CellTiter-Glo
Method in brief: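 Cytoprotection read-out: CellTiter-Glo chemiluminescence after 5 days at 37 °C of HIV-IIIb-infected MT-4 cells (m.o.i. 0.003) with compound in 10-point 3-fold dilutions, quadruplicate, 10% FBS. Cytotoxicity (CC50) measured identically without virus.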

Row | Structure (SMILES) | inhibition at 2 µM (HIV-IIIb) | CC50 at 5 days (in vitro)
1 | Cc1cc(F)ccc1-c1cccnc1[C@H](Cc1cc(F)cc(F)c1)NC(=O)Cc1c[nH]c2ccc(F)cc12 [Example 404, (S)—N-(2-(3,5-difluorophenyl)-1-(3-(4-fluoro-2-methylphenyl)pyridin-2-yl)ethyl)-2-(5-fluoro-1H-indol-3-yl)acetamide] | 0% | 44600 nM
2 | CNC(=O)c1ccc(-c2cccnc2[C@H](Cc2cc(F)cc(F)c2)NC(=O)Cc2c[nH]c3ccc(F)cc23)cc1Cl [Example 405, (S)-2-chloro-4-(2-(2-(3,5-difluorophenyl)-1-(2-(5-fluoro-1H-indol-3-yl)acetamido)ethyl)pyridin-3-yl)-N-methylbenzamide] | 11% | 21100 nM
3 | O=C(Cc1c[nH]c2ccc(F)cc12)N[C@@H](Cc1cc(F)cc(F)c1)c1ncccc1-c1ccc(F)c(F)c1 [Example 406, (S)—N-(2-(3,5-difluorophenyl)-1-(3-(3,4-difluorophenyl)pyridin-2-yl)ethyl)-2-(5-fluoro-1H-indol-3-yl)acetamide] | 27% | 11400 nM
4 | O=C(Cn1nc(C(F)(F)F)c2c1CCCC2)N[C@@H](Cc1cc(F)cc(F)c1)c1ncccc1-c1cnc2[nH]ccc2c1 [Example 407, (S)—N-(1-(3-(1H-pyrrolo[2,3-b]pyridin-5-yl)pyridin-2-yl)-2-(3,5-difluorophenyl)ethyl)-2-(3-(trifluoromethyl)-4,5,6,7-tetrahydro-1H-indazol-1-yl)acetamide] | 102% | 12000 nM
5 | NC(=O)c1cc(-c2cccnc2[C@H](Cc2cc(F)cc(F)c2)NC(=O)Cn2nc(C(=O)O)c3c2C2CCC3C2)ccc1F (stereo partly drawn) [Example 409, (S)-5-(2-(2-(3,5-difluorophenyl)-1-(2-(4,5,6,7-tetrahydro-3-carboxy-4,7-(methano)indazol-1-yl)acetamido)ethyl)pyridin-3-yl)-2-fluorobenzamide] | 0% | > 53200 nM
6 | O=C(Cn1nc(C(F)F)c2c1C(F)(F)C1CC21)N[C@@H](Cc1cc(F)cc(F)c1)c1ncccc1-c1cccc2cnccc12 (stereo partly drawn) [Example 410, (S)—N-(1-(3-(quinole-5-yl)-pyridin-2-yl)-2-(3,5-difluorophenyl)ethyl)-2-(3-(difluoromethyl)-5,6-dihydro-4,5-(methano)-6,6-difluoro-cyclopenta[c]pyrazol-1(4H)-yl)acetamide] | 103% | 13700 nM
7 | O=C(Cn1nc(C(F)F)c2c1C(F)(F)C1CC21)N[C@@H](Cc1cc(F)cc(F)c1)c1ncccc1-c1ccc2ncccc2c1 (stereo partly drawn) [Example 411, (S)—N-(1-(3-(quinoline-6-yl)-pyridin-2-yl)-2-(3,5-difluorophenyl)ethyl)-2-(3-(difluoromethyl)-5,6-dihydro-4,5-(methano)-6,6-difluoro-cyclopenta[c]pyrazol-1(4H)-yl)acetamide] | 53% | 8980 nM
8 | NC(=O)c1cc(-c2cccnc2[C@H](Cc2cc(F)cc(F)c2)NC(=O)Cc2c[nH]c3ccc(F)cc23)ccc1Cl [Example 412, (S)-2-chloro-5-(2-(2-(3,5-difluorophenyl)-1-(2-(5-fluoro-1H-indol-3-yl)acetamido)ethyl)pyridin-3-yl)benzamide] | 80% | 11100 nM
9 | CS(=O)(=O)c1ccc(-c2cccnc2[C@H](Cc2cc(F)cc(F)c2)NC(=O)Cc2c[nH]c3ccc(F)cc23)cc1 [Example 413, (S)—N-(2-(3,5-difluorophenyl)-1-(3-(4-(methylsulfonyl)phenyl)pyridin-2-yl)ethyl)-2-(5-fluoro-1H-indol-3-yl)acetamide] | 61% | 14500 nM
10 | NC(=O)c1cc(-c2cccnc2[C@H](Cc2cc(F)cc(F)c2)NC(=O)Cn2nc(C(F)(F)F)c3c2C(=O)CCC3(F)F)ccc1F [Example 414] | 39% | 23400 nM
11 | O=C(Cn1nc(C(F)F)c2c1C(F)(F)C1CC21)N[C@@H](Cc1cc(F)cc(F)c1)c1ncccc1-c1ccc2nccnc2c1 (stereo partly drawn) [Example 415, (S)—N-(1-(3-(quinoxalin-6-yl)-pyridin-2-yl)-2-(3,5-difluorophenyl)ethyl)-2-(3-(difluoromethyl)-5,6-dihydro-4,5-(methano)-6,6-difluoro-cyclopenta[c]pyrazol-1(4H)-yl)acetamide] | 39% | 38000 nM
12 | O=C(Cc1c[nH]c2ccc(F)cc12)N[C@@H](Cc1cc(F)cc(F)c1)c1ncccc1-c1ccc(-c2ccccc2)cc1 [Example 416, (S)—N-(1-(3-(biphenyl-4-yl)pyridin-2-yl)-2-(3,5-difluorophenyl)ethyl)-2-(5-fluoro-1H-indol-3-yl)acetamide] | 0% | 10300 nM
13 | CC(C)(C)NC(=O)c1cc(-c2cccnc2[C@H](Cc2cc(F)cc(F)c2)NC(=O)Cc2c[nH]c3ccc(F)cc23)ccc1F [Example 417, (S)—N-tert-butyl-5-(2-(2-(3,5-difluorophenyl)-1-(2-(5-fluoro-1H-indol-3-yl)acetamido)ethyl)pyridin-3-yl)-2-fluorobenzamide] | 8% | 12800 nM
14 | NC(=O)c1cccc(-c2cccnc2[C@H](Cc2cc(F)cc(F)c2)NC(=O)Cn2cnc3ccccc32)c1 [Example 418, (S)-3-(2-(1-(2-(1H-benzo[d]imidazol-1-yl)acetamido)-2-(3,5-difluorophenyl)ethyl)pyridin-3-yl)benzamide] | 19% | > 53200 nM
15 | Cc1cc(-c2cccnc2[C@H](Cc2cc(F)cc(F)c2)NC(=O)Cc2c[nH]c3ccc(F)cc23)cnc1F [Example 419] | 42% | 27100 nM
16 | O=C(Cn1nc(C(F)F)c2c1C(F)(F)C1CC21)N[C@@H](Cc1cc(F)cc(F)c1)c1ncccc1-c1cccc2ncccc12 (stereo partly drawn) [Example 420, (S)—N-(1-(3-(isoquinole-5-yl)-pyridin-2-yl)-2-(3,5-difluorophenyl)ethyl)-2-(3-(difluoromethyl)-5,6-dihydro-4,5-(methano)-6,6-difluoro-cyclopenta[c]pyrazol-1(4H)-yl)acetamide] | 110% | 18700 nM
17 | O=C(Cn1nc(C(F)F)c2c1C(F)(F)C1CC21)N[C@@H](Cc1cc(F)cc(F)c1)c1ncccc1-c1ccc2[nH]ncc2c1 (stereo partly drawn) [Example 421, (S)—N-(1-(3-(indozol-5-yl)-pyridin-2-yl)-2-(3,5-difluorophenyl)ethyl)-2-(3-(difluoromethyl)-5,6-dihydro-4,5-(methano)-6,6-difluoro-cyclopenta[c]pyrazol-1(4H)-yl)acetamide] | 70% | 10200 nM
18 | O=C(Cc1c[nH]c2ccc(F)cc12)N[C@@H](Cc1cc(F)cc(F)c1)c1ncccc1-c1cc(Cl)cc(Cl)c1 [Example 422] | 0% | 6760 nM
19 | O=C(Cn1nc(C(F)(F)F)c2c1CCCC2)N[C@@H](Cc1cc(F)cc(F)c1)c1ncccc1-c1cccc(C(=O)N2CCOCC2)c1 [Example 424, (S)—N-(2-(3,5-difluorophenyl)-1-(3-(3-(morpholine-4-carbonyl)phenyl)pyridin-2-yl)ethyl)-2-(3-(trifluoromethyl)-4,5,6,7-tetrahydro-1H-indazol-1-yl)acetamide] | 78% | 14200 nM
20 | CS(=O)(=O)c1ccc(-c2cccnc2[C@H](Cc2cc(F)cc(F)c2)NC(=O)Cn2nc(C(F)(F)F)c3c2CCCC3)cc1 [Example 425, (S)—N-(2-(3,5-difluorophenyl)-1-(3-(4-(methylsulfonyl)phenyl)pyridin-2-yl)ethyl)-2-(3-(trifluoromethyl)-4,5,6,7-tetrahydro-1H-indazol-1-yl)acetamide] | 85% | 15600 nM
21 | NS(=O)(=O)c1cccc(-c2cccnc2[C@H](Cc2cc(F)cc(F)c2)NC(=O)Cc2c[nH]c3ccc(F)cc23)c1 [Example 428, (S)—N-(2-(3,5-difluorophenyl)-1-(3-(3-sulfamoylphenyl)pyridin-2-yl)ethyl)-2-(5-fluoro-1H-indol-3-yl)acetamide] | 94% | 23000 nM
22 | O=C(Cc1c[nH]c2ccc(F)cc12)N[C@@H](Cc1cc(F)cc(F)c1)c1ncccc1-c1cnc2[nH]ccc2c1 [Example 430, (S)—N-(1-(3-(1H-pyrrolo[2,3-b]pyridin-5-yl)pyridin-2-yl)-2-(3,5-difluorophenyl)ethyl)-2-(5-fluoro-1H-indol-3-yl)acetamide] | 31% | 26300 nM
23 | O=C(Cc1c[nH]c2ccc(F)cc12)N[C@@H](Cc1cc(F)cc(F)c1)c1ncccc1-c1ccc(OC(F)(F)F)cc1 [Example 431, (S)—N-(2-(3,5-difluorophenyl)-1-(3-(4-(trifluoromethoxy)phenyl)pyridin-2-yl)ethyl)-2-(5-fluoro-1H-indol-3-yl)acetamide] | 7% | 6390 nM
24 | O=C(Cn1nc(C(F)(F)F)c2c1CCCC2)N[C@@H](Cc1cc(F)cc(F)c1)c1ncccc1-c1ccc(N2CCCC2)nc1 [Example 432, (S)—N-(2-(3,5-difluorophenyl)-1-(6′-(pyrrolidin-1-yl)-3,3′-bipyridin-2-yl)ethyl)-2-(3-(trifluoromethyl)-4,5,6,7-tetrahydro-1H-indazol-1-yl)acetamide] | 90% | 7990 nM
25 | CS(=O)(=O)Nc1ccc(-c2cccnc2[C@H](Cc2cc(F)cc(F)c2)NC(=O)Cn2nc(C(F)F)c3c2C(F)(F)C2CC32)cc1 (stereo partly drawn) [Example 433, (S)—N-(1-(3-(4-(methylsulfonamido)phenyl)-pyridin-2-yl)-2-(3,5-difluorophenyl)ethyl)-2-(3-(difluoromethyl)-5,6-dihydro-4,5-(methano)-6,6-difluoro-cyclopenta[c]pyrazol-1(4H)-yl)acetamide] | 16% | 20800 nM
26 | O=C(Cc1c[nH]c2ccc(F)cc12)N[C@@H](Cc1cc(F)cc(F)c1)c1ncccc1-c1ccc(Cl)c(F)c1 [Example 434] | 20% | 12300 nM
